Test results: patent US20100249145A1, “Inhibitors of VEGF Receptor and HGF Receptor Signaling” (Methylgene, Inc., priority 2005, published 2010)
pIC50: −log10 of the molar value.

Legend:
A549 = assay: In vivo solid tumor disease model, A549 xenograft; set-up: species or system female athymic CD 1 mice; details: 30 mg/kg once daily IP, vehicle DMSO, 14 days
HCT116 = assay: In vivo solid tumor disease model, HCT116 xenograft; set-up: species or system female athymic CD 1 mice; details: HCT116; 30 mg/kg once daily IP; vehicle DMSO; 14 days
U87 cells = assay: In vivo solid tumor disease model, U87 xenograft; set-up: species or system female athymic CD 1 mice; details: U87MG
Description: (§1) In Vivo Solid Tumor Disease Model
(§2) This test measures the capacity of compounds to inhibit solid tumor growth.
(§3) Tumor xenografts were established in the flank of female athymic CD 1 mice (Charles River Inc.), by subcutaneous injection of 1×10^6U87, A431 or SKLMS cells/mouse. Once established, tumors were then serially passaged s.c. in nude mice hosts. Tumor fragments from these host animals were used in subsequent compound evaluation experiments. For compound evaluation experiments female nude mice weighing approximately 20 g were implanted s.c. by surgical implantation with tumor fragments of ˜30 mg from donor tumors. When the tumors were approximately 100 mm^3 in size (˜7-10 days following implantation), the animals were randomized a separated into treatment and control groups. Each group contained 6-8 tumor-bearing mice, each of which was ear-tagged and followed individually throughout the experiment
(§4) Mice were weighed and tumor measurements are taken by calipers three times weekly, starting on Day 1. These tumor measurements were converted to tumor volume by the well-known formula (L+W/4)^34/3π. The experiment was terminated when the control tumors reached a size of approximately 1500 mm^3. In this model, the change in mean tumor volume for a compound treated group/the change in mean tumor volume of the control group (non-treated or vehicle treated)×100 (ΔT/ΔC) was subtracted from 100 to give the percent tumor growth inhibition (% TGI) for each test compound. In addition to tumor volumes, body weight of animals were monitored twice weekly for up to 3 weeks.
(§5) Regiment of administration was once daily.

SW48 = assay: In vivo solid tumor disease model, SW48 xenograft; set-up: species or system female athymic CD 1 mice; details: 30 mg/kg once daily IP, vehicle DMSO, 14 days
MKN74 = assay: In vivo solid tumor disease model, MKN74 xenograft; set-up: species or system female athymic CD 1 mice; details: vehicle DMSO, 10 days
SKLMS cells = assay: In vivo solid tumor disease model, SKLMS xenograft; set-up: species or system female athymic CD 1 mice; details: SKLMS40, 30 mg/kg once daily IP, vehicle DMSO
Description: as §1, §2, §3, §4, §5

VEGF receptor KDR = molecular target: T1, VEGF receptor KDR (Homo sapiens, UniProt P35968); assay: In vitro receptor tyrosine kinase assay (DELFIA), VEGF receptor KDR; format: biochemical; details: Table 30; ATP 0.6 uM, enzyme 5 nM; read-out: VEGF(enz.) (IC50)
T1 construct: made in house; host or cells: Sf9 cells (Spodoptera frugiperda), recombinant baculovirus
T1 sequence (P35968 806-1356): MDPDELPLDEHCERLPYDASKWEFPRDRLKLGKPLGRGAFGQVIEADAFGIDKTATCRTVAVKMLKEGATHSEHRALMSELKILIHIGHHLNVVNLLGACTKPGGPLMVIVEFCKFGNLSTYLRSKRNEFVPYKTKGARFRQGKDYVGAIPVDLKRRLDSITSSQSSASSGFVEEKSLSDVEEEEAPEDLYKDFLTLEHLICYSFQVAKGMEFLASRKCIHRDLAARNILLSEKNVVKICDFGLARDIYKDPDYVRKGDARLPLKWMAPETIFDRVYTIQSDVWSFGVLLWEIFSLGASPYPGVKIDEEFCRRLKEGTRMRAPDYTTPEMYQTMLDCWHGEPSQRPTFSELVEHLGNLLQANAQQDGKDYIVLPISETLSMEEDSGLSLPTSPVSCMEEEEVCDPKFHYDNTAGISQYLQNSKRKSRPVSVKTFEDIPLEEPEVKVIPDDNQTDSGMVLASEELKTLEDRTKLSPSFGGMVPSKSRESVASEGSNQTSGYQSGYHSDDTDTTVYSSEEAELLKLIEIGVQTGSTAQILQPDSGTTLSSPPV

A431 cells = assay: In vivo solid tumor disease model, A431 xenograft; set-up: species or system female athymic CD 1 mice; details: 30 mg/kg once daily IP, vehicle DMSO, 7 days
Description: as §1, §2, §3, §4, §5

DU145 = assay: In vivo solid tumor disease model, DU145 xenograft; set-up: species or system female athymic CD 1 mice; details: 30 mg/kg once daily IP, vehicle DMSO, 10 days
MDA-MB-231 = assay: In vivo solid tumor disease model, MDA-MB-231 xenograft; set-up: species or system female athymic CD 1 mice; details: 75 mg/kg once daily PO, vehicle 0.5% CMC in acetate buffer (pH 4.0), 14 days
MNNG-HOS = assay: In vivo solid tumor disease model, MNNG-HOS xenograft; set-up: species or system female athymic CD 1 mice; details: 14 days
MV4-11 = assay: In vivo solid tumor disease model, MV4-11 xenograft; set-up: species or system female athymic CD 1 mice; details: 20 mg/kg once daily p.o., 14 days
[1] = 30 mg/kg once daily IP, vehicle DMSO, 14 days

CN(C)C(=O)c1cc2nccc(Oc3ccc(NC(=S)NC(=O)Cc4ccccc4)cc3F)c2s1 [Example 1, 1-(4-(2-(Dimethylcarbamoyl)thieno[3,2-b]pyridin-7-yloxy)-3-fluorophenyl)-3-(2-phenylacetyl)thiourea]
Tumor Growth Inhibition (%) (A549): b (% TGI in the range of 50-74) | Tumor Growth Inhibition (%) (HCT116): c (% TGI in the range of 25-49) | Tumor Growth Inhibition (%) (U87 cells; 15 mg/kg once daily IP, vehicle DMSO, 10 days): c (% TGI in the range of 25-49) | Tumor Growth Inhibition (%) (U87 cells; 30 mg/kg once daily IP, vehicle DMSO, 7 days): c (% TGI in the range of 25-49) | Tumor Growth Inhibition (%) (U87 cells; [1]): c (% TGI in the range of 25-49) | Tumor Growth Inhibition (%) (U87 cells; 30 mg/kg once daily IP, vehicle DMSO, 14 days (a* footnote class)): a* (greater than 100% tumor growth inhibition (i.e., tumor shrinkage)) | Tumor Growth Inhibition (%) (U87 cells; 100 mg/kg once daily PO, vehicle 5% DMSO - 1% Tween-80 in water, 14 days): c (% TGI in the range of 25-49) | Tumor Growth Inhibition (%) (SW48): b (% TGI in the range of 50-74) | Tumor Growth Inhibition (%) (MKN74; 15 mg/kg once daily IP): d (% TGI in the range of 0-24) | Tumor Growth Inhibition (%) (MKN74; 30 mg/kg once daily IP): c (% TGI in the range of 25-49) | Tumor Growth Inhibition (%) (SKLMS cells; 14 days): b (% TGI in the range of 50-74) | pIC50 (VEGF receptor KDR): > 7.30

O=C(Cc1ccccc1)NC(=S)Nc1ccc(Oc2ccnc3cc(-c4ccccn4)sc23)c(F)c1 [Example 13, 1-(4-(2-(Pyridin-2-yl)thieno[3,2-b]pyridin-7-yloxy)-3-fluorophenyl)-3-(2-phenylacetyl)thiourea]
Tumor Growth Inhibition (%) (A431 cells): b (% TGI in the range of 50-74) | Tumor Growth Inhibition (%) (U87 cells; [1]): a (% TGI in the range of 75-100) | Tumor Growth Inhibition (%) (SW48): d (% TGI in the range of 0-24) | Tumor Growth Inhibition (%) (DU145): d (% TGI in the range of 0-24) | Tumor Growth Inhibition (%) (SKLMS cells; 10 days): b (% TGI in the range of 50-74) | pIC50 (VEGF receptor KDR): > 7.30

Cn1cnc(-c2cc3nccc(Oc4ccc(NC(=S)NC(=O)Cc5ccccc5F)cc4F)c3s2)c1 [Example 137, N-(3-Fluoro-4-(2-(1-methyl-1H-imidazol-4-yl)thieno[3,2-b]pyridin-7-yloxy)phenylcarbamothioyl)-2-(2-fluorophenyl)acetamide]
Tumor Growth Inhibition (%) (MDA-MB-231): b (% TGI in the range of 50-74)

COc1ccccc1CC(=O)NC(=S)Nc1ccc(Oc2ccnc3cc(-c4cn(C)cn4)sc23)c(F)c1 [Example 138, N-(3-Fluoro-4-(2-(1-methyl-1H-imidazol-4-yl)thieno[3,2-b]pyridin-7-yloxy)phenylcarbamothioyl)-2-(2-methoxyphenyl)acetamide]
Tumor Growth Inhibition (%) (MDA-MB-231): b (% TGI in the range of 50-74)

Cn1cnc(-c2cc3nccc(Oc4ccc(NC(=S)NC(=O)Cc5ccc(F)cc5F)cc4F)c3s2)c1 [drawing 493]
Tumor Growth Inhibition (%) (MNNG-HOS; 40 mg/kg once daily p.o.): a (% TGI in the range of 75-100)

Cn1cnc(-c2cc3nccc(Oc4ccc(NC(=S)NC(=O)Cc5ccc(F)cc5)cc4F)c3s2)c1 [drawing 494]
Tumor Growth Inhibition (%) (MNNG-HOS; 75 mg/kg once daily p.o.): a* (greater than 100% tumor growth inhibition (i.e., tumor shrinkage))

CCn1cnc(-c2cc3nccc(Oc4ccc(NC(=S)NC(=O)Cc5ccccc5C)cc4F)c3s2)c1 [drawing 495]
Tumor Growth Inhibition (%) (MNNG-HOS; 20 mg/kg once daily p.o.): c (% TGI in the range of 25-49)

C#Cc1ccccc1CC(=O)NC(=S)Nc1ccc(Oc2ccnc3cc(-c4cn(C)cn4)sc23)c(F)c1 [drawing 497]
Tumor Growth Inhibition (%) (MV4-11): a (% TGI in the range of 75-100)
